{
  "source": "paper PMC4527756",
  "about": "(Bioorganic & medicinal chemistry, 2015)",
  "key": {"α4β2* nAChR [1]": {"target": "α4β2* nAChR", "conditions": "[3H]cytisine, cited from earlier work; for Ki: read-out: α4β2* Ki"}, "mouse tail-flick test": {"test_system": "mouse tail-flick test", "conditions": "cited from earlier work"}, "α4β2* nAChR [2]": {"target": "α4β2* nAChR (Rattus norvegicus, UniProt P09483+P12390)", "sequence (P09483 31-630)": "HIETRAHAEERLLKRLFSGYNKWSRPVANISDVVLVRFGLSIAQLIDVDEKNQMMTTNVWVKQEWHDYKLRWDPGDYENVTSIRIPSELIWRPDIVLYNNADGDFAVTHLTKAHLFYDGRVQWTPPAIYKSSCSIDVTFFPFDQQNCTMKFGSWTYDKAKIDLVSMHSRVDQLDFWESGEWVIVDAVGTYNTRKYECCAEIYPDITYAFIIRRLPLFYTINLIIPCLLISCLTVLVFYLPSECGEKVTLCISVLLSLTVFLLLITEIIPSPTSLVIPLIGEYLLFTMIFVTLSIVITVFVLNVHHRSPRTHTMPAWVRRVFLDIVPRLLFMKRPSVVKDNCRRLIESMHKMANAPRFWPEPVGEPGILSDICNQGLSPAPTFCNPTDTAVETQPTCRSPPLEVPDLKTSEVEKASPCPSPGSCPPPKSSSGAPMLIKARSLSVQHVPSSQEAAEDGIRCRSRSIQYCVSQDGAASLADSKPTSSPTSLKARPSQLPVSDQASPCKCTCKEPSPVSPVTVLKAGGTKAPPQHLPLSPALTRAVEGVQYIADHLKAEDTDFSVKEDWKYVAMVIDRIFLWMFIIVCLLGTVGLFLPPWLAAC", "sequence (P12390 25-500)": "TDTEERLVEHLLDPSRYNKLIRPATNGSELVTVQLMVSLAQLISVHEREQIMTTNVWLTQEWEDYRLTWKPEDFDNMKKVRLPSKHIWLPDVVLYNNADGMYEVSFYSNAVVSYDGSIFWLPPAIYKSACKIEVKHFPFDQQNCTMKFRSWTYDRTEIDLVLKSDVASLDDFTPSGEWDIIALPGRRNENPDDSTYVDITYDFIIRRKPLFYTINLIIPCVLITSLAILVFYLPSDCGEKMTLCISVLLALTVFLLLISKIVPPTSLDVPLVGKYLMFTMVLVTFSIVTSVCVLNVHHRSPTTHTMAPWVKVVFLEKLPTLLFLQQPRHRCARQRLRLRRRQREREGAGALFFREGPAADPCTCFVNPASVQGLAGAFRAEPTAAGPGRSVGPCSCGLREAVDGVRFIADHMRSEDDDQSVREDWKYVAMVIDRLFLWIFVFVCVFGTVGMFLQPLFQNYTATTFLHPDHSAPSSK", "test": "radioligand binding assay, α4β2* nAChR", "parameters": "species or system Sprague-Dawley rat", "conditions": "for Measured activity scale: class of measured α4β2* Ki; for affinity for nAChR subtypes (in words): α4β2* and other nAChR subtypes tested"}, "[3]": {"test_system": "mouse tail suspension test", "conditions": "cited from earlier work"}, "[4]": {"target": "(α1)2β1γδ (\"muscle type\") nAChR (Tetronarce californica, UniProt P02710+P02714+P02718)", "sequence (P02718 22-522)": "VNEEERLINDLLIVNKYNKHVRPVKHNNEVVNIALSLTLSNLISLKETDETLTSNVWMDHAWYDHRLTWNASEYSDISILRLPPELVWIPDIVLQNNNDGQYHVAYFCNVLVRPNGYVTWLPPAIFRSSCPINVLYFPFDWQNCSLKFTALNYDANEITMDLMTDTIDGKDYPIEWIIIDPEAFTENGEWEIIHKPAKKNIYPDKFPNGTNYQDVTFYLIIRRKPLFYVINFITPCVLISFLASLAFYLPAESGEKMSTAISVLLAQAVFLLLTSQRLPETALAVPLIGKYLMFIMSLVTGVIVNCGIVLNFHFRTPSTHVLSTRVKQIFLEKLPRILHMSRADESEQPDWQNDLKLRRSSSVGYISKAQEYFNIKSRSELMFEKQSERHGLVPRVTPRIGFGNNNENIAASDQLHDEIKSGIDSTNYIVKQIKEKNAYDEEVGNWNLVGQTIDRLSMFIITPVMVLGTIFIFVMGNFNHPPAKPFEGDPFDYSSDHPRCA", "sequence (P02714 18-506)": "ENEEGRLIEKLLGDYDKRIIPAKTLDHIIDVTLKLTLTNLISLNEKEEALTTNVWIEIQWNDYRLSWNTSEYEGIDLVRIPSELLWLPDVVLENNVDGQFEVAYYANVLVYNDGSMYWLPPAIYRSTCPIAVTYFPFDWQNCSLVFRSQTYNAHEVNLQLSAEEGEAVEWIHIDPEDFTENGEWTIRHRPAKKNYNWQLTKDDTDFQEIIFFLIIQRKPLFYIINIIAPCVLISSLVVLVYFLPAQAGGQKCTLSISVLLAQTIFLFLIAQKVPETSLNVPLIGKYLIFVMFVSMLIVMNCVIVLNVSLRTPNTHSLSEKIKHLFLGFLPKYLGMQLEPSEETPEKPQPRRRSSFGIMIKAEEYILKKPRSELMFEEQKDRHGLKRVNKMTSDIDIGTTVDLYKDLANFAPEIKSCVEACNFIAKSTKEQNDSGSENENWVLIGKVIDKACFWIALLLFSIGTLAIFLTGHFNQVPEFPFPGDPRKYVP", "sequence (P02710 25-461)": "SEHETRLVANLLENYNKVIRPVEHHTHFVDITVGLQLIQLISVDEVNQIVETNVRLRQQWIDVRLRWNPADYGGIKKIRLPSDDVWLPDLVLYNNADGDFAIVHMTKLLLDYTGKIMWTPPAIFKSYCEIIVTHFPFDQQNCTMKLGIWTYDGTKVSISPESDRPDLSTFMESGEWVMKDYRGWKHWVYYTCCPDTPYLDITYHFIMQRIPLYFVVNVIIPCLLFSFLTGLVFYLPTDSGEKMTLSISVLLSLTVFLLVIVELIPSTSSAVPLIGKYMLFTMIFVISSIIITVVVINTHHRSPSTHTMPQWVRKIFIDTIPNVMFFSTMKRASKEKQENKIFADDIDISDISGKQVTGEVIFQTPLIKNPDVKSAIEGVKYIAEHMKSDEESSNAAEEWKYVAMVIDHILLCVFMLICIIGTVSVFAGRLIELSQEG", "sequence (P02712 25-493, further chain)": "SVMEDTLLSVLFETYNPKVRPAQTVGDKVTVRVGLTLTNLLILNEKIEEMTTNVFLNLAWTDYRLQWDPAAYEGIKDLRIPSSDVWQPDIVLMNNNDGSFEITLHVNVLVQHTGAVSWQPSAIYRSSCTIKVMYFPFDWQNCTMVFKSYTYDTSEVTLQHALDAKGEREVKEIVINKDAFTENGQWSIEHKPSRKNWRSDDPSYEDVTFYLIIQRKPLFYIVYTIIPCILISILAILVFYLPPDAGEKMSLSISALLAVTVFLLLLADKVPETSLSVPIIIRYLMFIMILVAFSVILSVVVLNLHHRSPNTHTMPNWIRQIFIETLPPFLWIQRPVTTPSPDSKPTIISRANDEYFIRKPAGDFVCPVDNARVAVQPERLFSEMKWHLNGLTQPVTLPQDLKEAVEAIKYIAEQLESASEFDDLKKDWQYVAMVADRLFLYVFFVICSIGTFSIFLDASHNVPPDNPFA", "test": "radioligand binding assay, muscle type nAChR", "parameters": "species or system Torpedo californica"}, "α4β2* nAChRs": {"test_system": "α4β2* nAChRs", "conditions": "cited from earlier work"}, "α7* nAChR": {"target": "α7* nAChR (Rattus norvegicus, UniProt Q05941)", "sequence (Q05941 23-502)": "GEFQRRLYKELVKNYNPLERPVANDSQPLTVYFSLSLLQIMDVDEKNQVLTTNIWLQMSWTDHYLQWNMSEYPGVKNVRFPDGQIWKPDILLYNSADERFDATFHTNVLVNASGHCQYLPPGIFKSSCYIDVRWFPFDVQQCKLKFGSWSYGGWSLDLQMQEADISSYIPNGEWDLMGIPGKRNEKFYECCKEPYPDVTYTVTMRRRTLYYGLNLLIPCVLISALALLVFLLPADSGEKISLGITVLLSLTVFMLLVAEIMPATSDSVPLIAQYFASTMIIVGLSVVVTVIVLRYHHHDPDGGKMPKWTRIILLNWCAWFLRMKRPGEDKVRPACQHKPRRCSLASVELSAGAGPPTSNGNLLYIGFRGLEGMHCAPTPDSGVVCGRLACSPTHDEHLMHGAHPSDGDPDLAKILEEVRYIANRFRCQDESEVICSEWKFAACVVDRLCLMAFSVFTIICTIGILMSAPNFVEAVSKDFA", "test": "radioligand binding assay, α7* nAChR", "parameters": "species or system Sprague-Dawley rat"}, "α4β2* nAChR [5]": {"target": "α4β2* nAChR", "conditions": "read-out: α4β2* Ki; cited from earlier work"}, "α3β4* nAChR": {"target": "α3β4* nAChR (Sus scrofa, UniProt A0A287A7Z4+O18764)", "test": "radioligand binding assay, α3β4* nAChR", "parameters": "species or system pig"}, "α7 nAChR": {"test_system": "α7 nAChR", "conditions": "read-out: α7 nAChR IC50; selective α7 nAChR agonist; cited from earlier work"}},
  "note": "Like-named read-outs stand apart in the source and are kept apart here.",
  "data": [
    {"molecule": "CN(C)CCOc1cccnc1", "note": "[Compound 9, N,N-dimethyl-2-(pyridin-3-yloxy)ethan-1-amine]", "values": [
      {"measurement": "Ki", "setting": "α4β2* nAChR [1]; ref 23", "value": 32.6, "unit": "nM"},
      {"measurement": "Ki", "setting": "α4β2* nAChR [1]; ref 24", "value": 24, "unit": "nM"},
      {"measurement": "In vivo activity ED50", "setting": "mouse tail-flick test", "value": "ED50 (mg/kg) = 15 (mouse tail-flick test) [24]"}
    ]},
    {"molecule": "CN(C)CCOc1cncc(N2CC3CNCC(C3)C2)c1", "note": "[Compound 17a, 2-((5-(3,7-diazabicyclo[3.3.1]nonan-3-yl)pyridin-3-yl)oxy)-N,N-dimethylethanamine]", "values": [
      {"measurement": "Measured activity scale", "setting": "α4β2* nAChR [2]", "value": "+++ (highly active +++, Ki < 150 nM)"},
      {"measurement": "effect in the mouse tail suspension test (in words)", "setting": "[3]", "value": "efficacy in the mouse tail suspension test"},
      {"measurement": "Ki", "setting": "[4]", "value": "> 1000", "unit": "nM"},
      {"measurement": "functional activity for α4β2* nAChRs (in words)", "setting": "α4β2* nAChRs", "value": "partial agonist activity"}
    ]},
    {"molecule": "CN1CCCN(c2cccnc2)CC1", "note": "[Compound 12b]", "values": [
      {"measurement": "IC50", "setting": "α4β2* nAChR [1]; read-out: α4β2* (IC50), printed as IC50 in Ki column", "value": 150, "unit": "nM"}
    ]},
    {"molecule": "CN(C)CCOc1cncc(N2CCCN(C)CC2)c1", "note": "[Compound 19a, N,N-dimethyl-2-((5-(4-methyl-1,4-diazepan-1-yl)pyridin-3-yl)oxy)ethanamine]", "values": [
      {"measurement": "Ki", "setting": "α4β2* nAChR [2]", "value": 6.9, "unit": "nM"},
      {"measurement": "Measured activity scale", "setting": "α4β2* nAChR [2]", "value": "++ (moderately active ++, 150 nM < Ki < 1,000 nM)"}
    ]},
    {"molecule": "CN(C)CCOc1cncc(N2CCCCC2)c1", "note": "[Compound 24, N,N-dimethyl-2-{[5-(piperidin-1-yl)pyridin-3-yl]oxy}ethanamine]", "values": [
      {"measurement": "Measured activity scale", "setting": "α4β2* nAChR [2]", "value": "+ (inactive +, Ki > 1,000 nM)"},
      {"measurement": "affinity for nAChR subtypes (in words)", "setting": "α4β2* nAChR [2]", "value": "complete loss of affinity"}
    ]},
    {"molecule": "c1cncc(N2CCNCC2)c1", "note": "[Compound 13a]", "values": [
      {"measurement": "Ki", "setting": "α4β2* nAChR [1]; ref 26", "value": 90, "unit": "nM"}
    ]},
    {"molecule": "CN(C)CCOc1cncc(N2CCC(O)CC2)c1", "note": "[Compound 26, 1-(5-(2-(dimethylamino)ethoxy)pyridin-3-yl)piperidin-4-ol]", "values": [
      {"measurement": "Measured activity scale", "setting": "α4β2* nAChR [2]", "value": "++ (moderately active ++, 150 nM < Ki < 1,000 nM)"},
      {"measurement": "interaction with α7* nAChR (in words)", "setting": "α7* nAChR", "value": "no activity"}
    ]},
    {"molecule": "CN(C)CCOc1cncc(N2CCCC2)c1", "note": "[Compound 23, N,N-dimethyl-2-{[5-(pyrrolidin-1-yl)pyridin-3-yl]oxy}ethanamine]", "values": [
      {"measurement": "Measured activity scale", "setting": "α4β2* nAChR [2]", "value": "+ (inactive +, Ki > 1,000 nM)"},
      {"measurement": "affinity for nAChR subtypes (in words)", "setting": "α4β2* nAChR [2]", "value": "complete loss of affinity"}
    ]},
    {"molecule": "CN1[C@@H](CC(=O)c2ccccc2)CCC[C@H]1C[C@H](O)c1ccccc1", "note": "[Lobeline 1, lobeline]", "values": [
      {"measurement": "Ki", "setting": "α4β2* nAChR [5]", "value": "4 to 30", "unit": "nM"}
    ]},
    {"molecule": "CN(C)CCOc1cncc(-c2cncc(OCCN(C)C)c2)c1", "note": "[Compound 10, 2,2′-([3,3′-bipyridine]-5,5′-diylbis(oxy))bis(N,N-dimethylethanamine)]", "values": [
      {"measurement": "fold decreased α4β2* affinity in comparison with single entity 9", "setting": "α4β2* nAChR [2]; versus compound 9", "value": "approximately nine-fold"},
      {"measurement": "interaction with α7* nAChR (in words)", "setting": "α7* nAChR", "value": "no interaction"},
      {"measurement": "interaction with α3β4* nAChR (in words)", "setting": "α3β4* nAChR", "value": "no interaction"}
    ]},
    {"molecule": "CN(C)CCOc1cc(F)cc(N2CC3CNCC(C3)C2)c1", "note": "[Compound 17b, 2-(3-(3,7-diazabicyclo[3.3.1]nonan-3-yl)-5-fluorophenoxy)-N,N-dimethylethanamine]", "values": [
      {"measurement": "Ki", "setting": "[4]", "value": "> 1000", "unit": "nM"}
    ]},
    {"molecule": "CN(C)CCOc1cncc(N2CCC2)c1", "note": "[Compound 22, 2-{[5-(azetidin-1-yl)pyridin-3-yl]oxy}-N,N-dimethylethanamine]", "values": [
      {"measurement": "Measured activity scale", "setting": "α4β2* nAChR [2]", "value": "++ (moderately active ++, 150 nM < Ki < 1,000 nM)"},
      {"measurement": "interaction with α7* nAChR (in words)", "setting": "α7* nAChR", "value": "no activity"}
    ]},
    {"molecule": "CN(C)CCOc1cncc(N2CCOCC2)c1", "note": "[Compound 25, N,N-dimethyl-2-{[5-(morpholin-4-yl)pyridin-3-yl]oxy}ethanamine]", "values": [
      {"measurement": "Measured activity scale", "setting": "α4β2* nAChR [2]", "value": "+ (inactive +, Ki > 1,000 nM)"},
      {"measurement": "affinity for nAChR subtypes (in words)", "setting": "α4β2* nAChR [2]", "value": "complete loss of affinity"}
    ]},
    {"molecule": "CN(C)CCOc1cncc(N2CCNCC2)c1", "note": "[Compound 20a, N,N-dimethyl-2-{[5-(piperazin-1-yl)pyridin-3-yl]oxy}ethanamine]", "values": [
      {"measurement": "fold lower α4β2* affinity in comparison with compound 17a", "setting": "α4β2* nAChR [2]", "value": "about 770 fold"},
      {"measurement": "Measured activity scale", "setting": "α4β2* nAChR [2]", "value": "+++ (highly active +++, Ki < 150 nM)"},
      {"measurement": "Ki", "setting": "[4]", "value": "> 1000", "unit": "nM"}
    ]},
    {"molecule": "CN(C)CCOc1cncc(N2CCCNCC2)c1", "note": "[Compound 18a, 2-((5-(1,4-diazepan-1-yl)pyridin-3-yl)oxy)-N,N-dimethylethanamine]", "values": [
      {"measurement": "Measured activity scale", "setting": "α4β2* nAChR [2]", "value": "+++ (highly active +++, Ki < 150 nM)"},
      {"measurement": "Ki", "setting": "[4]", "value": "> 1000", "unit": "nM"}
    ]},
    {"molecule": "CN(C)CCOc1cc(N2CC3CNCC(C3)C2)cc(F)c1F", "note": "[Compound 17c, 2-(5-(3,7-diazabicyclo[3.3.1]nonan-3-yl)-2,3-difluorophenoxy)-N,N-dimethylethanamine]", "values": [
      {"measurement": "Ki", "setting": "[4]", "value": "> 1000", "unit": "nM"}
    ]},
    {"molecule": "CN1CCN(c2cccnc2)CC1", "note": "[Compound 13b]", "values": [
      {"measurement": "Ki", "setting": "α4β2* nAChR [1]; ref 26", "value": 90, "unit": "nM"}
    ]},
    {"molecule": "CCN(CC)CCOc1ccc2c(c1)C(=O)c1cc(OCCN(CC)CC)ccc1-2", "note": "[tilorone 8, tilorone]", "values": [
      {"measurement": "IC50", "setting": "α7 nAChR", "value": 110, "unit": "nM"}
    ]},
    {"molecule": "CN(C)CCOc1cncc(N2CCN(C)CC2)c1", "note": "[Compound 21a, N,N-dimethyl-2-{[5-(4-methylpiperazin-1-yl)pyridin-3-yl]oxy}ethanamine]", "values": [
      {"measurement": "Measured activity scale", "setting": "α4β2* nAChR [2]", "value": "+++ (highly active +++, Ki < 150 nM)"},
      {"measurement": "Ki", "setting": "[4]", "value": "> 1000", "unit": "nM"}
    ]}
  ]
}
